In the kinase profiling compilation of Christmann-Franck et al. (2016) one finds residual activity, kinase still bound, per cent of control and Kd data, which are given here for 1 molecule.

In general, residual activity refers to the activity still measured, relative to the control. High values mean much activity left, low ones little activity left. Broadly, the Kd is the constant that tells how readily two partners part at equilibrium. The low end stands for a tighter complex, the high end for a looser complex.

Targets include MAP2K5 (human) (UniProt Q13163); MAP3K1 (human) (UniProt Q13233); PDGFRB (human) (UniProt P09619); RET (human) (UniProt P07949); RIPK2 (human) (UniProt O43353); RPS6KA6 KD2 (human) (UniProt Q9UK32); STK16 (human) (UniProt O75716).
Holding throughout (test): KINOMEscan competition binding
The target in the next test is CDK4 CCND1 (human) (UniProt P11802+P24385). As to conditions: compound 1.0 µM.
Sequence of CDK4 CCND1 (human) (P11802 whole entry, looked up): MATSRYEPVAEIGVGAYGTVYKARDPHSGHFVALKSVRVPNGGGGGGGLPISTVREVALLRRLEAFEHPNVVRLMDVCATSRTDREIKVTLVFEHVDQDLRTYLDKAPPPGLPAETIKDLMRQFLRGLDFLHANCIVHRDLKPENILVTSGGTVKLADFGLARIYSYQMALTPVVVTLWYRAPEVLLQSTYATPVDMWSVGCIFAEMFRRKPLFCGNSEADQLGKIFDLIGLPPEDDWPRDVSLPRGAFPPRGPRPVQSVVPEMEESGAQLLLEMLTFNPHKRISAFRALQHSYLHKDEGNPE
Sequence of CDK4 CCND1 (human) (P24385 whole entry, looked up): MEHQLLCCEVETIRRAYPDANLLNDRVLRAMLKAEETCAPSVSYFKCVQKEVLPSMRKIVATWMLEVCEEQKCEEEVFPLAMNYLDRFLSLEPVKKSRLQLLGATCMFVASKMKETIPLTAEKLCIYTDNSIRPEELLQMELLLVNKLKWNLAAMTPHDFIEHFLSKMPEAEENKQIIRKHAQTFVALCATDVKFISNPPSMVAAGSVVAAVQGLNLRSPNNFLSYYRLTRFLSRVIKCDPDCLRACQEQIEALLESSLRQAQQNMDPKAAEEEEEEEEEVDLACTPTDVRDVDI
Another test deals with CDK4 CCND3 (human) (UniProt P11802+P30281). As to conditions: compound 1.0 µM.
Sequence of CDK4 CCND3 (human) (P11802 whole entry, looked up): as the sequence (P11802 whole entry, looked up) above
Sequence of CDK4 CCND3 (human) (P30281 whole entry, looked up): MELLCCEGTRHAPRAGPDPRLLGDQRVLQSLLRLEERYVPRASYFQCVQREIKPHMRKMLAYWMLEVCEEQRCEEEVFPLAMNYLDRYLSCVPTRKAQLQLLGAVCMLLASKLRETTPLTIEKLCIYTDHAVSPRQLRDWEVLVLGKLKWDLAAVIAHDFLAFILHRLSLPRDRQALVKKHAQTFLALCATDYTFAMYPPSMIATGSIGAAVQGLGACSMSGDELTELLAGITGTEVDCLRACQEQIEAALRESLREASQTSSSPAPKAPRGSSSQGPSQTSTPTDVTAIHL
The test system of another test is CPK1 (P.falciparum). As to conditions: compound 1.0 µM.
The subject of test [1] is FLT3 (human), P36888 [ITD]. As to conditions: compound 1.0 µM.
The target of the next test is PKN3 (M.tuberculosis) (UniProt Q6P5Z2). As to conditions: compound 1.0 µM.
Sequence of PKN3 (M.tuberculosis) (Q6P5Z2 whole entry, looked up): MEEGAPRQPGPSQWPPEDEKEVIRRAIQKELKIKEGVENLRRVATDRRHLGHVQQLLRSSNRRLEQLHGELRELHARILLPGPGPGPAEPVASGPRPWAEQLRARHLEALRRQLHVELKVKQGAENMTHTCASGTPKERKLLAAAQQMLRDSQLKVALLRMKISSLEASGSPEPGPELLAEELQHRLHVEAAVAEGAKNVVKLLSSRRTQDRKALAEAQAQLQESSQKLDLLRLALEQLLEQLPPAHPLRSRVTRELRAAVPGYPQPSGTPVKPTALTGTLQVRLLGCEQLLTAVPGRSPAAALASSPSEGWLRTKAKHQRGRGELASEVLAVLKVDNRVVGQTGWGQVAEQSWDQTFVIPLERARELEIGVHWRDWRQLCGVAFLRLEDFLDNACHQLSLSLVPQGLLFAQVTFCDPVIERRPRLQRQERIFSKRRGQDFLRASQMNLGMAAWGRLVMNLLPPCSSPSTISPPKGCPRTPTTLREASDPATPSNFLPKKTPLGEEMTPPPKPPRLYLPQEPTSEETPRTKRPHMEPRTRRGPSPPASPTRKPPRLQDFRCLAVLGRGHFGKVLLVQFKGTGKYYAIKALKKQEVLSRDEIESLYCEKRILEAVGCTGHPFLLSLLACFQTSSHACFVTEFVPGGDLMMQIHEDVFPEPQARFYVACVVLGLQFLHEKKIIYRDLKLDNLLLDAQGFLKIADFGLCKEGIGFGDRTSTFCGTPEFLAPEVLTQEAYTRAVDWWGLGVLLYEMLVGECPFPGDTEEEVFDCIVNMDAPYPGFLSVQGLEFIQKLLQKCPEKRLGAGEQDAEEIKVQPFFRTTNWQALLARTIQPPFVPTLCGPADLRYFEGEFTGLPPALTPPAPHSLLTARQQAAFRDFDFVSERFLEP

Sequence of MAP3K1 (human) (Q13233 whole entry, looked up): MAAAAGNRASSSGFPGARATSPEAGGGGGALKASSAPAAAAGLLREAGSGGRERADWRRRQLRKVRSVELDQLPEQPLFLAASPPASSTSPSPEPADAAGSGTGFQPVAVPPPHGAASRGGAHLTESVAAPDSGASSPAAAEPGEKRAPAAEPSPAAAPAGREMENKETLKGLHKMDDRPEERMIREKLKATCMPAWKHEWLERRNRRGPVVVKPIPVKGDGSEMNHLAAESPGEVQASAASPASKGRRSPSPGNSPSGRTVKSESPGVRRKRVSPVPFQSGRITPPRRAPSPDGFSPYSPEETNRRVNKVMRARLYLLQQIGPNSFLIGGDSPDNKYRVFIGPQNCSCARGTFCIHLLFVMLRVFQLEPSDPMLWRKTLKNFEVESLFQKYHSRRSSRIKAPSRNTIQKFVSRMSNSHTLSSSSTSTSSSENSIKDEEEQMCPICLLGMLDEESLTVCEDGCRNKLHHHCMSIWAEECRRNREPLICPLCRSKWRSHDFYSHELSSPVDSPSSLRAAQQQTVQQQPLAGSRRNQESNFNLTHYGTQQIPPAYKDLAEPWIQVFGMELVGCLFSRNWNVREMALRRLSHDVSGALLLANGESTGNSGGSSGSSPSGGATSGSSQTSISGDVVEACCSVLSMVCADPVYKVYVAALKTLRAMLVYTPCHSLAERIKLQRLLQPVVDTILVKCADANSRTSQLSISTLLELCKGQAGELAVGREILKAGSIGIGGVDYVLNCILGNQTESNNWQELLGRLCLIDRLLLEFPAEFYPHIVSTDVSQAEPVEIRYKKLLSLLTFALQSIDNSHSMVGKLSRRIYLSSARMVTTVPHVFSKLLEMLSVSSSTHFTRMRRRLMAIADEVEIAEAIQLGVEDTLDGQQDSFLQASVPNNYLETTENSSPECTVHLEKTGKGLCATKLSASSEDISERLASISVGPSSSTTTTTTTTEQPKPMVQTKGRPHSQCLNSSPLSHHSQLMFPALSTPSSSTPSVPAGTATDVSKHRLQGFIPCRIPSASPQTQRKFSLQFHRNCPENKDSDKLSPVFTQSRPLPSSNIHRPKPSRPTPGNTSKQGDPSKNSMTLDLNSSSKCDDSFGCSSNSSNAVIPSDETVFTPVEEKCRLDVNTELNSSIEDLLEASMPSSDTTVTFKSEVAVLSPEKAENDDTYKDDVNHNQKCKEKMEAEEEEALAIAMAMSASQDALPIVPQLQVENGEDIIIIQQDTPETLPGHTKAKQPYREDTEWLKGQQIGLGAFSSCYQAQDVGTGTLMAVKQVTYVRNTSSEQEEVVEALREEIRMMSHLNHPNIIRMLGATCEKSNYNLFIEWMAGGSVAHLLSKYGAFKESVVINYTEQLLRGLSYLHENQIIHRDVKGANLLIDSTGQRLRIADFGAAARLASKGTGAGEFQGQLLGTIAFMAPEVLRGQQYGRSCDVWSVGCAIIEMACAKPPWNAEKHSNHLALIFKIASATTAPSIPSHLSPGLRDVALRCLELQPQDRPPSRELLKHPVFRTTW
Sequence of RPS6KA6 KD2 (human) (Q9UK32 whole entry, looked up): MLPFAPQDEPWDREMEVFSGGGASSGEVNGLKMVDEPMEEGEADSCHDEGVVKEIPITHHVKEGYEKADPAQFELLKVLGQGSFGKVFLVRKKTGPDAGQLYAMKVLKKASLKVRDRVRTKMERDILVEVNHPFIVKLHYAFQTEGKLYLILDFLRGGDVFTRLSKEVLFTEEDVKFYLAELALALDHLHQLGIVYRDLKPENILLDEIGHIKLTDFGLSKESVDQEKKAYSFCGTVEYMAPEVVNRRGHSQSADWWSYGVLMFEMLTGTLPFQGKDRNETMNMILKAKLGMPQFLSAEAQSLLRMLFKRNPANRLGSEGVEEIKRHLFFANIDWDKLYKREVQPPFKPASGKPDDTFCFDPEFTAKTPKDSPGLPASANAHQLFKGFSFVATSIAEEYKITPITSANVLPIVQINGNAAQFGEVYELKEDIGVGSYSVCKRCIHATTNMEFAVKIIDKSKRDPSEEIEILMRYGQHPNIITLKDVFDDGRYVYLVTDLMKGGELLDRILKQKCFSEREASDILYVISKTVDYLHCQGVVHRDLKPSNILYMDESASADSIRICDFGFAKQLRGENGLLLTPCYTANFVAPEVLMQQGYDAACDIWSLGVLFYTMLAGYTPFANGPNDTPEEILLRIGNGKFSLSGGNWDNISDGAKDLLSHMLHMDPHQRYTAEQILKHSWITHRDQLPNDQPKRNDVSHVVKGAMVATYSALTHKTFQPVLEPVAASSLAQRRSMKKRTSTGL
Sequence of RIPK2 (human) (O43353 whole entry, looked up): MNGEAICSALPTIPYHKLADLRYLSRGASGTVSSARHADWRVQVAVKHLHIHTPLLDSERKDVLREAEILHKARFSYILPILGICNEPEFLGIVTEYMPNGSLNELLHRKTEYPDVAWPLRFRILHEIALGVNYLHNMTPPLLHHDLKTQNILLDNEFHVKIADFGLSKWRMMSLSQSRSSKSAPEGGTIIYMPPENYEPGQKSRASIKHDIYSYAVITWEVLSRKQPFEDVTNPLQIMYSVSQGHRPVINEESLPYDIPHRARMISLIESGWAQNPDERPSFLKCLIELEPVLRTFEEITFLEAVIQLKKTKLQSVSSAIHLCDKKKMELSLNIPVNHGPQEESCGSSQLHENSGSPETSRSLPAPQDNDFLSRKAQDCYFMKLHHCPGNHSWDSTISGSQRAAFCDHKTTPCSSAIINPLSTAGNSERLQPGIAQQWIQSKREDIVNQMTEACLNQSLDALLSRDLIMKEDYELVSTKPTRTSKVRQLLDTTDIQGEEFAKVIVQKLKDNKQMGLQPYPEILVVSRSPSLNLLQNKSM
Sequence of STK16 (human) (O75716 whole entry, looked up): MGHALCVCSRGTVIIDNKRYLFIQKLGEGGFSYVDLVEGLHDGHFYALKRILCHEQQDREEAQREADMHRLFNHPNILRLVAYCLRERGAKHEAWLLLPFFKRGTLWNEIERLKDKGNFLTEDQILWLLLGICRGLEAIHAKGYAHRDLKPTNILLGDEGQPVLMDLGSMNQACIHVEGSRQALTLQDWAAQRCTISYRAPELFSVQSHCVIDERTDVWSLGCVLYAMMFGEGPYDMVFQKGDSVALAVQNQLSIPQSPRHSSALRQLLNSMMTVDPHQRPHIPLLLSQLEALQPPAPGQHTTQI

For `Cc1ccc(-c2c(/C=C(\C#N)C(=O)NC(C)C)n(CCCO)c3ncnc(N)c23)cc1`, the residual activity at CDK4 CCND1 (human) stood at 100%; on CDK4 CCND3 (human), 95%. In addition, the figures for the kinase still bound, per cent of control (with CPK1 (P.falciparum); in test [1]; on PKN3 (M.tuberculosis)) were 68%, 75% and 100%, respectively. Moreover, the dissociation constant (Kd) amounted to 2300 nM on MAP2K5 (human); 45 nM on MAP3K1 (human); 2800 nM on PDGFRB (human); 360 nM at RET (human); 310 nM on RIPK2 (human); 1.2 nM at RPS6KA6 KD2 (human). The molecule also showed a dissociation constant Kd at STK16 (human) of 230 nM.
